Experimental data published in US20250228869A1, “Benzodiazepine Pyrazolo Carboxamides as N-protein Inhibitors” (Pfizer Inc., priority 2024, published 2025).
Marks after values point to notes of the source that are not given here.

Legend:
[1] = In vitro bone marrow assay; type: cell-based; settings: primary human bone marrow mononuclear cells, 5 days exposure, total cell count, read-out: Human Bone Marrow Tox IC50
Procedure: In vitro bone marrow assay—Chen, W., et al., J. Pharmacokinetics and Pharmacodynamics, 2020, 47, 163-182.
Primary human bone marrow mononuclear cells (Lonza) were cultured in stemline II hematopoietic stem cell expansion medium (Sigma Aldrich), supplemented with 5% FBS and under induction by the following cytokines (R&D Systems): 25 ng/mL stem cell factor (SCF), ng/mL G-CSF, 10 ng/mL granulocyte macrophage-colony stimulating factor, 3 U/mL erythropoietin (EPO), 15 ng/mL thrombopoietin (TPO), 10 ng/mL IL3, 10 ng/mL IL6, and ng/mL Flt3 ligand. Cell cultures were maintained in the 37° C., 5% CO2, and 98% humidity incubator (see reference for further details). Cells were preincubated for 1 day and were then exposed to either DMSO or compound for 5 additional days. Cell counts were determined manually using a hemocytometer from 10 μL aliquots and converted to the total cell number by adjusting for the volume of the cell culture medium in each well. While the total cell count included myeloid, erythroid, and megakaryocytic lineages, neutrophil precursors comprised the majority of the total cell population given the stimulatory conditions of the cell culture. […]

[2] = Relay method using human hepatocytes (clearance); type: in vitro ADME; settings: human hepatocytes incubations under relay conditions
Text: Relay Method Using Human Hepatocytes—Di, L., et al., Drug Metabolism and Disposition, 2012, 40, 1860-1865.
Pooled cryopreserved human hepatocytes of 10 donors were purchased from Celsis IVT (Baltimore, MD). This lot of pooled hepatocytes was used for all the studies. When selecting new lots of hepatocytes, enzyme activities need to be verified using marker compounds. Upon thawing, the hepatocytes were resuspended in Williams' medium E (custom formula number 91-5233EC; Invitrogen, Grand Island, NY) supplemented with HEPES and Na2CO3. The cells were counted using the trypan blue exclusion method, and the 24-well hepatocyte plates containing 0.5 million cells/ml were spiked with a compound at a final concentration of 1 μM (dimethyl sulfoxide, final concentration 0.025%; methanol, final concentration 0.125%), in a final incubation volume of 0.50 ml. […]
The LC mobile phases were as follows: (A) HPLC grade water containing 0.1% formic acid, and (B) acetonitrile containing 0.1% formic acid. […] Terfenadine was used as an internal standard for LC-MS/MS quantification in positive ion multiple reaction monitoring mode. All of the test compounds had good linearity with R^2>0.99, and the limit of quantitation was 1 nM for all of the compounds.
Human in vitro intrinsic clearance was calculated using methods as previously described in the reference above.

[3] = tested on: RSV A2; assay: RSV plaque reduction assay in HepG2 cells; type: cell-based; settings: human respiratory syncytial virus, HepG2, read-out: RSV A2 plaque, HepG2, EC50 (nM)
Text: The RSV plaque reduction assay is an infectivity assay which allows quantification of the number of infectious units in a distinct foci of RSV infection. As each plaque originates from a single infectious virus particle an accurate calculation of the anti-viral effect can be obtained by counting plaques in the presence and absence of an anti-viral compound. HepG2 cells (ECACC: 85011430) were passaged in flasks and seeded in 24-well plates in DMEM containing antibiotics and supplemented with 10% FBS. During inoculation and subsequent incubation, cells were cultured in DMEM containing 2% FBS. 100 plaque forming unit (PFU)/well of RSV (RSV A2 VR-1540) was mixed with serial dilutions of compound. Subsequently, 100 μL of the virus/compound mixtures was added to confluent HepG2 cell monolayers. Plates were incubated at 37° C. in a humidified 5% CO2 incubator for 2 hrs. The inoculum was then removed and 1 ml of overlay (4% CMC in 2% DMEM) was added to each well. Cells were cultured for 48 h at 37° C. in a humidified 5% CO2 incubator and then fixed with 75% acetone-25% methanol solution. Plates were washed under running water and blocking solution (2% skimmed milk powder in PBS-Tween) was added to each well and plates incubated on a shaker for 1 h at 37° C. […]

[4] = Shake flask determination of distribution coefficient (log D); type: physicochemical; settings: 1-octanol / phosphate buffer
Procedure: Shake flask method of determining log D—Miniaturized version of log D assay described in Stopher, D. and McClean, S. J. Pharm. Pharmacol. 1990, 42, 144.
Nadolol, mexiletine, propranolol, quinidine, amitriptyline, and chlorproazine were dissolved in DMSO to a concentration of 10 mM and used as controls in each plate. D-neo-Inositol, 5-[[(2E)-3-[4-[[(5E)-5-[[(3-chloro-2,6-difluorophenyl)methoxy]imino]-5,6-dideoxy-β-D-arabino-hexofuranosyl]oxy]-3-hydroxyphenyl]-2-methyl-1-oxo-2-propenyl]amino]-5-deoxy-1,2-O-methylene-(9Cl) (CAS 247598-17) is used as an Internal Standard (IS).
All liquid handling steps were performed by a Biomek FX. Buffer-saturated 1-octanol (149 μL/well) was added to duplicate 1 mL capacity 96-well plates. Test compounds (10 mM in DMSO; 2 μL/well) and controls (10 mM in DMSO; 2 μL/well) were transferred from Matrix 2D barcoded storage tubes to the 96-well plates.
Following the addition of 1-octanol saturated phosphate buffer (149 μL/well), the plates were sealed with silicone well cap-mats. […]
Samples were analyzed by micro-flow reversed-phase liquid chromatography coupled to tandem mass spectrometry (μfLC-MS/MS). […]
Peak areas were corrected by dilution factors and incorporating internal standard, and the ratio of the corrected peak areas were used to calculate the results (log D value). The log D value for each compound was calculated using the following equation: […]

[5] = tested on: RSV; settings: Antimicrobial Agents and Chemotherapy 2007 (Chapman et al); cited from earlier work

Row | Compound | IC50 at 5 days [1] [nM] | Human Hepatocyte CLint,app (mL/min/million) [2] | EC50 [3] [nM] | logD [4] | anti-RSV activity [5]
1 | CCS(=O)(=O)c1ccc(-c2nn3c(c2C(=O)N[C@H]2N=C(c4ccccc4)c4cccc(F)c4NC2=O)OCC(C)(C)C3)c(F)c1 [Example 2, (S)-2-(4-(ethylsulfonyl)-2-fluorophenyl)-N-(9-fluoro-2-oxo-5-phenyl-2,3-dihydro-1H-benzo[e][1,4]diazepin-3-yl)-6,6-dimethyl-6,7-dihydro-5H-pyrazolo[5,1-b][1,3]oxazine-3-carboxamide] | > 40000 | <0.14* mL/min/million | 3.5 | 3 | –
2 | O=C(Nc1ccccc1F)N[C@H]1N=C(c2ccccc2)c2ccccc2NC1=O [RSV604] | – | – | – | – | sub-micromolar
